Experimental data as given in patent publication US20230263786A1, “MODULATION OF DRUG-DRUG INTERACTIONS OF VADADUSTAT” (Akebia Therapeutics, Inc., priority 2020, published 2023).
“And” between values parts separate entries of the source, which are not always exact repeats. Identical values can stand only once. Like-named read-outs stand apart in the source and are kept apart here.

How the values were obtained:
[1] = target: human PHD1 (Homo sapiens, UniProt Q96KS0); test: PHD inhibitory action, PHD1; format: biochemical; settings: in vitro
Chain of human PHD1 (Q96KS0 whole entry): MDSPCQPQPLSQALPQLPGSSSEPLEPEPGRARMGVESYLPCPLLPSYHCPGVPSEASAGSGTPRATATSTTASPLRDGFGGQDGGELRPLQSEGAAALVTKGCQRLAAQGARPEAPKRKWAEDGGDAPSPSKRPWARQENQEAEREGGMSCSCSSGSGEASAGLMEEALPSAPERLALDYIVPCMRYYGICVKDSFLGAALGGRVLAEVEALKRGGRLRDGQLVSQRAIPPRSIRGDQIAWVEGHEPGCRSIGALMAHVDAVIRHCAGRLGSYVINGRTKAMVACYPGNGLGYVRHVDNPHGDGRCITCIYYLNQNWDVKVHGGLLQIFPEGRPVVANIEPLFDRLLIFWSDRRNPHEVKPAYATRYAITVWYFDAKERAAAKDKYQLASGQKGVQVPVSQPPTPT

[2] = system: erythropoietin; test: Blood erythropoietin concentration increasing action; format: in vivo; settings: normal rat, single oral administration
[3] = system: hemoglobin concentration and red blood cell count; test: Hemoglobin concentration and red blood cell count after repeated dosing; format: in vivo, rat; settings: normal rats, repeated oral administration for 14 days
[4] = Plasma pharmacokinetics, 150/300/600 mg once daily, first day; format: in vivo; settings: male, human, healthy adult men
[5] = Influence of meal on pharmacokinetics, single 450 mg dose; settings: male, human, in vivo, oral
Description: The median tmax of this drug was prolonged by postprandial administration for about 1.5 hours as compared with fasting.

[6] = Plasma protein binding, equilibrium dialysis; format: in vitro ADME; settings: human, in vitro, read-out: human plasma protein binding rate
Text: The human plasma protein binding rate of this drug was higher than 99% (in vitro, equilibrium dialysis).

[7] = target: T1, CYP2B6 (Homo sapiens, UniProt P20813); test: CYP2B6 inhibition in vitro; format: in vitro ADME
T1 sequence (P20813 1-491): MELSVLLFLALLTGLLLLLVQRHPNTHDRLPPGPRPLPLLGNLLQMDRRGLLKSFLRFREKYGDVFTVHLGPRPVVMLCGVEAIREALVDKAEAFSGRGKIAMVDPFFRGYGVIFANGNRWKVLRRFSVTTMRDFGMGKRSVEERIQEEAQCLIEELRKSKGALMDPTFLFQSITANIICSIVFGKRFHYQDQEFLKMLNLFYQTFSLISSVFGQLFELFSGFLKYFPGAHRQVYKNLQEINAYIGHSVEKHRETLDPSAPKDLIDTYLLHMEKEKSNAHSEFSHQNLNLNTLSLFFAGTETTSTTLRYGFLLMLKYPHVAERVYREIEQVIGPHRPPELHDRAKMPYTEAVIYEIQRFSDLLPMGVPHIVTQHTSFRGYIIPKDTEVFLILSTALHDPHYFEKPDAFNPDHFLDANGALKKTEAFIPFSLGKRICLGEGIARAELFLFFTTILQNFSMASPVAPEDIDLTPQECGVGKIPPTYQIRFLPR

[8] = system: hemoglobin; test: Phase III clinical trial in patients with hemodialysis anemia; format: in vivo, human
Description: The incidence of adverse reactions when this drug was administered up to 24 weeks was 8.3% (2/24 cases).

[9] = Phase I furosemide interaction study; format: in vivo, human; settings: furosemide 40 mg and vadadustat 600 mg once daily
Description: The study included 3 periods as follow: a 28-day screening period, 7-21 day in clinic period, and a 30-day follow up period post last dose.
On Days 3 to 6, subjects received vadadustat 600 mg (once daily).

[10] = Phase I single-dose study, moderate hepatic impairment versus normal hepatic function; format: in vivo, human; settings: for AUC(0-inf) / AUC(0-t) / Cmax / Vd/F / half-life / Tmax / CL renal: both sexes, human, oral, 450 mg; for AUC(0-inf) / AUC(0-t) / Cmax / Vd/F / half-life / Tmax: plasma; for half-life: read-out: Elimination Half-life (t1/2) (converted); for Tmax: median; for CL renal: urine, read-out: CLr, renal clearance (converted)
Description: A phase I, open-label, parallel-group, single-dose study was conducted to evaluate the pharmacokinetics (PK) of 450 mg vadadustat administered in adults with moderate hepatic impairment (Child-Pugh Class B) versus those with normal hepatic function. The pharmacokinetic (pK) parameters of Compound 1 were characterized. Safety and tolerability were assessed throughout the study.
Inclusion criteria: participants were male and female adults between 18 and 70 years of age, with either normal hepatic function or moderate hepatic impairment based on the Child-Pugh classification (Child-Pugh Class B [score 7-9]). Moderate hepatic impairment was defined by the presence and severity of elevated bilirubin levels, decreased serum albumin levels, elevated international normalized ratios >2.20, ascites, and hepatic encephalopathy.
Pharmacokinetics. […] PK parameters Ae0-72, Fe %0-72, and CL, were estimated from the urine concentration-time profiles.
8 subjects with hepatic impairment and 8 matched subjects with normal hepatic function were enrolled in the study. All subjects received a single oral 450-mg dose of vadadustat on Day 1 and were required to fast for at least 10 hours before dosing and for 4 hours after dosing.

[11] = After Meal, healthy adult males
[12] = single 450 mg, Moderate Hepatic Impairment, mean ± SD
[13] = single 450 mg, Moderate Hepatic Impairment
[14] = single 450 mg, Normal Liver Function, mean ± SD
[15] = single 450 mg, Normal Liver Function

## O=C(O)CNC(=O)c1ncc(-c2cccc(Cl)c2)cc1O [Compound 1, {[5-(3-chlorophenyl)-3-hydroxypyridine-2-carbonyl]amino}acetic acid]
[1]
  IC50: 0.0154 µM
[2]
  blood erythropoietin levels: elevated
[3]
  hemoglobin concentration: increasing
  red blood cell count: increasing
[4]; 150 mg once daily
  AUC(0-t): 123 ± 30.5 µg·h/mL
  Cmax: 24200 ± 4990 ng/mL
  Tmax: 0.75 h
  half-life: 5.96 ± 0.914 h
[4]; 300 mg once daily
  AUC(0-t): 289 ± 75.3 µg·h/mL
  Cmax: 44300 ± 10800 ng/mL
  Tmax: 1.95 h
  half-life: 6.14 ± 0.763 h
[4]; 600 mg once daily
  AUC(0-t): 624 ± 205 µg·h/mL
  Cmax: 84800 ± 22300 ng/mL
  Tmax: 1.98 h
  half-life: 6.07 ± 0.419 h
[5]; [11]
  AUC(0-inf): 351 ± 101 µg·h/mL
  Cmax: 46300 ± 12200 ng/mL
[5]; After Meal, healthy adult males, read-out: tmax
  Tmax: 3.52 h
[5]; Fasting, healthy adult males
  AUC(0-inf): 371 ± 100 µg·h/mL
  Cmax: 63100 ± 14600 ng/mL
[5]; Fasting, healthy adult males, read-out: tmax
  Tmax: 2 h
[5]; compared with fasting, read-out: prolongation of median tmax by postprandial administration
  Tmax: ~1.5 h
[6]
  fraction unbound: < 0.01
[7]
  inhibitory effect on CYP2B6: inhibitory effect
[8]; administered up to 24 weeks
  incidence of adverse reactions: 8.3%
[8]; at 20 and 24 weeks, 150-600 mg once daily, adjusted average ± standard error
  Average hemoglobin level, After administration: 10.75 ± 0.19
[8]; hemodialysis anemia patients, baseline, mean ± standard deviation
  Average hemoglobin level, Before administration: 9.30 ± 0.67
[9]
  serious TEAEs: No serious TEAEs
[10]; AUC0-inf, Geometric LSM, Total Compound 1, single 450 mg, Moderate Hepatic Impairment
  AUC(0-inf): 414 µg·h/mL
[10]; AUC0-inf, Geometric LSM, Total Compound 1, single 450 mg, Normal Liver Function
  AUC(0-inf): 394 µg·h/mL
[10]; AUC0-last, Geometric LSM, Total Compound 1, single 450 mg, Moderate Hepatic Impairment
  AUC(0-t): 410 µg·h/mL
[10]; AUC0-last, Geometric LSM, Total Compound 1, single 450 mg, Normal Liver Function
  AUC(0-t): 389 µg·h/mL
[10]; Cmax, Geometric LSM, Total Compound 1, single 450 mg, Moderate Hepatic Impairment
  Cmax: 52000 ng/mL
[10]; Cmax, Geometric LSM, Total Compound 1, single 450 mg, Normal Liver Function
  Cmax: 50000 ng/mL
[10]; Volume of distribution (Vd/F), Unbound Compound 1, single 450 mg, Moderate Hepatic Impairment, mean ± SD
  Vd/F: 1490 ± 542 L
[10]; Volume of distribution (Vd/F), Unbound Compound 1, single 450 mg, Normal Liver Function, mean ± SD
  Vd/F: 1330 ± 222 L
[10]; single 450 mg, Moderate Hepatic Impairment, mean ± SD, read-out: AUC0-inf, plasma, total
  AUC(0-inf): 436 ± 156 µg·h/mL
[10]; single 450 mg, Moderate Hepatic Impairment, mean ± SD, read-out: AUC0-last, plasma, total
  AUC(0-t): 432 ± 153 µg·h/mL
[10]; single 450 mg, Moderate Hepatic Impairment, mean ± SD, read-out: Cmax, plasma, total
  Cmax: 53000 ± 12000 ng/mL
[10]; [12]
  half-life: 7.8 h
  AUC0-inf, Unbound Compound 1: 3.78 ± 1.738 µg·h/mL
  AUC0-last, Unbound Compound 1: 3.75 ± 1.709 µg·h/mL
  Clearance (CL/F), Unbound Compound 1: 140 ± 56.02 L/h
  Clearance (CL/F), total: 1.2 ± 0.4 L/h
  Cmax, Unbound Compound 1: 451 ± 133.2 ng/mL
  Elimination Half-life (t1/2): 7.75 ± 2.5 h
[10]; single 450 mg, Moderate Hepatic Impairment, mean ± SD, read-out: Volume of distribution (Vd/F), total
  Vd/F: 12.3 ± 4 L
[10]; [13]
  Tmax: 2 h
  CL renal: 0.105 mL/min
  AUC0-inf, Geometric LSM, Unbound Compound 1: 3.47 µg·h/mL
  AUC0-last, Geometric LSM, Unbound Compound 1: 3.44 µg·h/mL
  Ae0-72, cumulative amount excreted in urine up to 72 hours: 2.45 ± 1.611 mg
  Cmax, Geometric LSM, Unbound Compound 1: 433 ng/mL
  Fe%0-72, cumulative fraction excreted in urine: 0.545% and 0.545 ± 0.3580%
[10]; single 450 mg, Normal Liver Function, mean ± SD, read-out: AUC0-inf, plasma, total
  AUC(0-inf): 397 ± 72 µg·h/mL
[10]; single 450 mg, Normal Liver Function, mean ± SD, read-out: AUC0-last, plasma, total
  AUC(0-t): 395 ± 72 µg·h/mL
[10]; single 450 mg, Normal Liver Function, mean ± SD, read-out: Cmax, plasma, total
  Cmax: 53000 ± 15000 ng/mL
[10]; [14]
  half-life: 5.8 h
  AUC0-inf, Unbound Compound 1: 2.91 ± 0.9049 µg·h/mL
  AUC0-last, Unbound Compound 1: 2.90 ± 0.9001 µg·h/mL
  Clearance (CL/F), Unbound Compound 1: 167 ± 49.10 L/h
  Clearance (CL/F), total: 1.2 ± 0.3 L/h
  Cmax, Unbound Compound 1: 378 ± 113.1 ng/mL
  Elimination Half-life (t1/2): 5.81 ± 1.4 h
[10]; single 450 mg, Normal Liver Function, mean ± SD, read-out: Volume of distribution (Vd/F), total
  Vd/F: 9.6 ± 1.9 L
[10]; [15]
  Tmax: 2.5 h
  CL renal: 0.122 mL/min
  AUC0-inf, Geometric LSM, Unbound Compound 1: 2.79 µg·h/mL
  AUC0-last, Geometric LSM, Unbound Compound 1: 2.78 µg·h/mL
  Ae0-72, cumulative amount excreted in urine up to 72 hours: 2.76 ± 1.214 mg
  Cmax, Geometric LSM, Unbound Compound 1: 360 ng/mL
  Fe%0-72, cumulative fraction excreted in urine: 0.614% and 0.614 ± 0.2698%
[10]; single 450 mg
  impact of moderate hepatic impairment on total systemic exposure: no significant impact on total systemic exposure
[10]; single 450 mg, both groups
  serious AEs: No serious AEs
[10]; single 450 mg, both moderate hepatic impairment and normal hepatic function
  dose excreted in the urine as Compound 1: < 1%
